This is an account of results in ChEMBL document CHEMBL1201862, “PubChem BioAssay data set” (2004).

What all share (format): functional
The target in experiment [1] is Hepatocyte growth factor receptor (Homo sapiens, UniProt P08581).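 Note: kinase panel profiling across the kinome, with MET as the panel member.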
The target in experiment [2] is Calcium/calmodulin-dependent protein kinase type II subunit delta (Homo sapiens, UniProt Q13557).
Experiment [3] deals with Cyclin-dependent kinase 9 (Homo sapiens, UniProt P50750).
Experiment [4] has as its target Proto-oncogene tyrosine-protein kinase receptor Ret (Homo sapiens, UniProt P07949).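 Note: measured within a kinome-wide profiling panel, RET as the panel member.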
The target of experiment [5] is Insulin-like growth factor 1 receptor (Homo sapiens, UniProt P08069). In words: Navigating the Kinome. Panel member name: IGF1R.
Experiment [6] has as its target Calcium/calmodulin-dependent protein kinase type II subunit alpha (Homo sapiens, UniProt Q9UQM7). As to the kind of experiment: Navigating the Kinome. Panel member name: CAMK2A.
Experiment [7] has as its target Serine/threonine-protein kinase PAK 1 (Homo sapiens, UniProt Q13153).
The target of experiment [8] is Testis-specific serine/threonine-protein kinase 2 (Homo sapiens, UniProt Q96PF2).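 Note: part of the Navigating the Kinome panel, target entry STK22B.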
Experiment [9] addresses T1, Serine/threonine-protein kinase TAO1 (Homo sapiens, UniProt Q7L7X3).
T1 sequence (Q7L7X3 whole entry): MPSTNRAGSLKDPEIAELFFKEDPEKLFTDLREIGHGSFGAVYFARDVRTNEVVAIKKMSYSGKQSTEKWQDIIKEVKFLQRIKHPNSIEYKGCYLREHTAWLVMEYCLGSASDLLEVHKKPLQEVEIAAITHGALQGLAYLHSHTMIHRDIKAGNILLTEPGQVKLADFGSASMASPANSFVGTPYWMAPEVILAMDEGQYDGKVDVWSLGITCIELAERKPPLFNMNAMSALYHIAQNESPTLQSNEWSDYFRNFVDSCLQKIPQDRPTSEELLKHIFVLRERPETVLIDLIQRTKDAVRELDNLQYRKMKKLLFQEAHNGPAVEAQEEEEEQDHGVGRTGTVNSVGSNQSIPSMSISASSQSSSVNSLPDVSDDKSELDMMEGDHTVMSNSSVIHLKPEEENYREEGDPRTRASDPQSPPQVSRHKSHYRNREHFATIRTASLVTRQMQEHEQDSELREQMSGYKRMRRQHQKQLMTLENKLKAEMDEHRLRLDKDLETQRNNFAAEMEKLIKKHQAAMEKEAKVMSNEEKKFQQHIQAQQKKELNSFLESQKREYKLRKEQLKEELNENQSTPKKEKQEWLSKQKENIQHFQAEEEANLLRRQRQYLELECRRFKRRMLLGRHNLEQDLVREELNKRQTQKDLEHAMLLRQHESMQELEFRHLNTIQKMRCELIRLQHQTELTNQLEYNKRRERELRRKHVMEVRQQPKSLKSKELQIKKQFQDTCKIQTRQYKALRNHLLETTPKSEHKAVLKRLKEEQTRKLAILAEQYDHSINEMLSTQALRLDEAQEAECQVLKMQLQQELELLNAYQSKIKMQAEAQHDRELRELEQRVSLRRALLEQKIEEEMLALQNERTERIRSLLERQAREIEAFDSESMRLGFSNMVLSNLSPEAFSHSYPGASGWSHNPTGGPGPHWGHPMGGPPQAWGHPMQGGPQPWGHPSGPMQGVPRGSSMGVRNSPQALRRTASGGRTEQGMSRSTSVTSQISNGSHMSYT

The target in experiment [10] is Serine/threonine-protein kinase Chk2 (Homo sapiens, UniProt O96017).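 Note: CHEK2 entry within a kinome-wide screening panel.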
Serine/threonine-protein kinase Chk2, sequence (O96017 whole entry): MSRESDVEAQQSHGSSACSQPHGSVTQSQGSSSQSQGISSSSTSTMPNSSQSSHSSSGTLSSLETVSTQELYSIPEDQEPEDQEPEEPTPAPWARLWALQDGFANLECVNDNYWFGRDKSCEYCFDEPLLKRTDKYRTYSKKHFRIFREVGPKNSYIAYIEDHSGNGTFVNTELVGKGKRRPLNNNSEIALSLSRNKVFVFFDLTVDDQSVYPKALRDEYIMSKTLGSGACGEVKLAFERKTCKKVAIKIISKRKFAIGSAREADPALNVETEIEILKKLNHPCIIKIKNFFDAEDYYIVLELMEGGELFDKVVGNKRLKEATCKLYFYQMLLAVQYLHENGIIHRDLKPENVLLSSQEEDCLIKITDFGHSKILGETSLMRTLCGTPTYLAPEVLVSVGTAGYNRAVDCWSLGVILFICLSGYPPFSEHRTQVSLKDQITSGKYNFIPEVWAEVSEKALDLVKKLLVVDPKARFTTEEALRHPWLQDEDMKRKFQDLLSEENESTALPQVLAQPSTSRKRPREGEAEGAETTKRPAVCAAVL
For experiment [11], the target named is Tyrosine-protein kinase BTK (Homo sapiens, UniProt Q06187).
Experiment [12] addresses Proto-oncogene tyrosine-protein kinase ROS (Homo sapiens, UniProt P08922).
Experiment [13] deals with Rho-associated protein kinase 1 (Homo sapiens, UniProt Q13464).
Rho-associated protein kinase 1, sequence (Q13464 whole entry): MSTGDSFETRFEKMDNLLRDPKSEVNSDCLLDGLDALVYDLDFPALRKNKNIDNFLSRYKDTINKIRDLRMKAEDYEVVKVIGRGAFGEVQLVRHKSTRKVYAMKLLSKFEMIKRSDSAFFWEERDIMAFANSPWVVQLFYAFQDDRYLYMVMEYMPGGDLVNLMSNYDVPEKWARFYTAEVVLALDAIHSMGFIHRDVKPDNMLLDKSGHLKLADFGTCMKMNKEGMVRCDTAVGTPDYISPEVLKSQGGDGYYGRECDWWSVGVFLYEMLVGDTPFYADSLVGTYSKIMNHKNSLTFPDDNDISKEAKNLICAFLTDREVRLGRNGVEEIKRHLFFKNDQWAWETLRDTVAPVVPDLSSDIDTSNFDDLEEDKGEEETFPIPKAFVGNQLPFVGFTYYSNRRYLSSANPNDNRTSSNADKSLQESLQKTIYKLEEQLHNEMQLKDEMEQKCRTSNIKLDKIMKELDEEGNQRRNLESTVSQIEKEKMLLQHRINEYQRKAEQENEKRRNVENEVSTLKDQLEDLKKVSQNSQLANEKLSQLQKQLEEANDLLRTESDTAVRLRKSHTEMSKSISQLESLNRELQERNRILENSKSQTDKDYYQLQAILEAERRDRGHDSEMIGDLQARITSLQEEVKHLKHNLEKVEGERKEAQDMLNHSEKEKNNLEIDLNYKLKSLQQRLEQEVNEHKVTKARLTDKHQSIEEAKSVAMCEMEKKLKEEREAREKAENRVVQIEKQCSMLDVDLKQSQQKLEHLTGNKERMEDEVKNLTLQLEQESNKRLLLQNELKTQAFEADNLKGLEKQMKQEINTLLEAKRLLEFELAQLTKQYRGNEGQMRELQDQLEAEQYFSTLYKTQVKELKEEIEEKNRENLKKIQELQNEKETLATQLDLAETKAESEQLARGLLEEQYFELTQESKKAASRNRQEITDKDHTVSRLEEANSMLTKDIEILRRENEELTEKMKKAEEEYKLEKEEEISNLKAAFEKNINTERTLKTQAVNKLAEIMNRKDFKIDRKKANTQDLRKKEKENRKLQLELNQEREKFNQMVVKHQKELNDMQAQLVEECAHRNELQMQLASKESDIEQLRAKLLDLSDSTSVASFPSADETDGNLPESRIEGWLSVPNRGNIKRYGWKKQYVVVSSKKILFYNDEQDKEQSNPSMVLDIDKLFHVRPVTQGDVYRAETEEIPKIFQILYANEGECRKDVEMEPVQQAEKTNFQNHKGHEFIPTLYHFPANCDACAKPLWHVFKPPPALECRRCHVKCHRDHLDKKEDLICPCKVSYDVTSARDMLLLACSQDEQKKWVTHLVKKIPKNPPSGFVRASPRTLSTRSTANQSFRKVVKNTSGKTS
Experiment [14] has as its target Lymphokine-activated killer T-cell-originated protein kinase (Homo sapiens, UniProt Q96KB5).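 Note: value comes from a kinase panel screen in which TOPK was one of the panel members.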
The target of experiment [15] is Death-associated protein kinase 3 (Homo sapiens, UniProt O43293).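 Note: measured as one member of a kinome-wide profiling panel.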
Death-associated protein kinase 3, sequence (O43293 whole entry): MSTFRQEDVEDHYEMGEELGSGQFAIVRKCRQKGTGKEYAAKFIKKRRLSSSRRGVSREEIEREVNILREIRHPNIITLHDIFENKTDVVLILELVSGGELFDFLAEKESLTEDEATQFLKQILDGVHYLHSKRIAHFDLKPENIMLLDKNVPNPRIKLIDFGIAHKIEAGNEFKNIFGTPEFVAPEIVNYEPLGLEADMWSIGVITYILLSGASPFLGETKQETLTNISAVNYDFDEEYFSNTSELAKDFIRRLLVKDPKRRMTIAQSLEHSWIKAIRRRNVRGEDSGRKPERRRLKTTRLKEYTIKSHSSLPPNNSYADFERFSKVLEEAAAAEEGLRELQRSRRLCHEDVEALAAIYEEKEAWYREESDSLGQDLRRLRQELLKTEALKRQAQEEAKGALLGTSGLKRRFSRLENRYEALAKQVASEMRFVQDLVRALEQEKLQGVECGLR
The target of experiment [16] is Dual specificity protein kinase CLK4 (Homo sapiens, UniProt Q9HAZ1).
Experiment [17] has as its target T2, Interleukin-1 receptor-associated kinase 4 (Homo sapiens, UniProt Q9NWZ3).
T2 sequence (Q9NWZ3 whole entry): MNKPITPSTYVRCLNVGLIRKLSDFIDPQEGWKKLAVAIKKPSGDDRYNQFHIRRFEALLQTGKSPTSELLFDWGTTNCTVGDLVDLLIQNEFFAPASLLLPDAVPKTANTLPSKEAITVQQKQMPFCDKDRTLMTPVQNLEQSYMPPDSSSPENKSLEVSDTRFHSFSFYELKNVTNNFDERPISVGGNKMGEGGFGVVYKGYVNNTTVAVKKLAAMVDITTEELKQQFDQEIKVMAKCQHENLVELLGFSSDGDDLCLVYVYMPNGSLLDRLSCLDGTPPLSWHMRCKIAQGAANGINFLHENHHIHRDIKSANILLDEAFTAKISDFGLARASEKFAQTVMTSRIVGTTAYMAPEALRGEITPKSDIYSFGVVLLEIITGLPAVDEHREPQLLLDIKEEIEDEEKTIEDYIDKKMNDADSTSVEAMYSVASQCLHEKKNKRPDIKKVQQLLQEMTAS

For experiment [18], the target named is Mitogen-activated protein kinase 8 (Homo sapiens, UniProt P45983).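 Note: value comes from one member of a kinome-wide kinase profiling panel.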
Mitogen-activated protein kinase 8, sequence (P45983 whole entry): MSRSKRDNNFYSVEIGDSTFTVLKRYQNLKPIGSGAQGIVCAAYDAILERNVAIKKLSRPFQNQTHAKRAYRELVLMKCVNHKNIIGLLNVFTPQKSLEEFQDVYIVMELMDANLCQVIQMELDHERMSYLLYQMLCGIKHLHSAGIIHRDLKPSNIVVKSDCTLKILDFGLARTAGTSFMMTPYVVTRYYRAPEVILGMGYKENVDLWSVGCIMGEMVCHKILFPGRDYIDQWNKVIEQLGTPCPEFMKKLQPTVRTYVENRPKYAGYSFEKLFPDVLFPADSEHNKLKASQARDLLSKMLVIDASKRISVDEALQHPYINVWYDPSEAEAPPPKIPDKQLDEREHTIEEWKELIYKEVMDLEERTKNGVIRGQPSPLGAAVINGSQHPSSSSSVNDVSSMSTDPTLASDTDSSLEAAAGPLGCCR
Experiment [19] has as its target Ribosomal protein S6 kinase beta-1 (Homo sapiens, UniProt P23443).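 Note: measured as one member of a kinome-wide profiling panel.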
Experiment [20] addresses Platelet-derived growth factor receptor alpha (Homo sapiens, UniProt P16234). In words: Navigating the Kinome. Panel member name: PDGFRA.
In experiment [21] the target is Serine/threonine-protein kinase PLK1 (Homo sapiens, UniProt P53350).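 Note: PLK1 measured as one member of a kinome-wide profiling panel.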
For experiment [22], the target named is Mitogen-activated protein kinase kinase kinase kinase 4 (Homo sapiens, UniProt O95819).
In experiment [23] the target is Serine/threonine-protein kinase D3 (Homo sapiens, UniProt O94806).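 Note: determined within a kinase panel screen, with PRKCN as the panel member.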
The target in experiment [24] is Eukaryotic elongation factor 2 kinase (Homo sapiens, UniProt O00418).
In experiment [25] the target is Tyrosine-protein kinase Lyn (Homo sapiens, UniProt P07948).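 Note: lyn as one member of a kinase panel.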

Activity calls are given as the source filed them.

Proto-oncogene tyrosine-protein kinase ROS, sequence (P08922 whole entry): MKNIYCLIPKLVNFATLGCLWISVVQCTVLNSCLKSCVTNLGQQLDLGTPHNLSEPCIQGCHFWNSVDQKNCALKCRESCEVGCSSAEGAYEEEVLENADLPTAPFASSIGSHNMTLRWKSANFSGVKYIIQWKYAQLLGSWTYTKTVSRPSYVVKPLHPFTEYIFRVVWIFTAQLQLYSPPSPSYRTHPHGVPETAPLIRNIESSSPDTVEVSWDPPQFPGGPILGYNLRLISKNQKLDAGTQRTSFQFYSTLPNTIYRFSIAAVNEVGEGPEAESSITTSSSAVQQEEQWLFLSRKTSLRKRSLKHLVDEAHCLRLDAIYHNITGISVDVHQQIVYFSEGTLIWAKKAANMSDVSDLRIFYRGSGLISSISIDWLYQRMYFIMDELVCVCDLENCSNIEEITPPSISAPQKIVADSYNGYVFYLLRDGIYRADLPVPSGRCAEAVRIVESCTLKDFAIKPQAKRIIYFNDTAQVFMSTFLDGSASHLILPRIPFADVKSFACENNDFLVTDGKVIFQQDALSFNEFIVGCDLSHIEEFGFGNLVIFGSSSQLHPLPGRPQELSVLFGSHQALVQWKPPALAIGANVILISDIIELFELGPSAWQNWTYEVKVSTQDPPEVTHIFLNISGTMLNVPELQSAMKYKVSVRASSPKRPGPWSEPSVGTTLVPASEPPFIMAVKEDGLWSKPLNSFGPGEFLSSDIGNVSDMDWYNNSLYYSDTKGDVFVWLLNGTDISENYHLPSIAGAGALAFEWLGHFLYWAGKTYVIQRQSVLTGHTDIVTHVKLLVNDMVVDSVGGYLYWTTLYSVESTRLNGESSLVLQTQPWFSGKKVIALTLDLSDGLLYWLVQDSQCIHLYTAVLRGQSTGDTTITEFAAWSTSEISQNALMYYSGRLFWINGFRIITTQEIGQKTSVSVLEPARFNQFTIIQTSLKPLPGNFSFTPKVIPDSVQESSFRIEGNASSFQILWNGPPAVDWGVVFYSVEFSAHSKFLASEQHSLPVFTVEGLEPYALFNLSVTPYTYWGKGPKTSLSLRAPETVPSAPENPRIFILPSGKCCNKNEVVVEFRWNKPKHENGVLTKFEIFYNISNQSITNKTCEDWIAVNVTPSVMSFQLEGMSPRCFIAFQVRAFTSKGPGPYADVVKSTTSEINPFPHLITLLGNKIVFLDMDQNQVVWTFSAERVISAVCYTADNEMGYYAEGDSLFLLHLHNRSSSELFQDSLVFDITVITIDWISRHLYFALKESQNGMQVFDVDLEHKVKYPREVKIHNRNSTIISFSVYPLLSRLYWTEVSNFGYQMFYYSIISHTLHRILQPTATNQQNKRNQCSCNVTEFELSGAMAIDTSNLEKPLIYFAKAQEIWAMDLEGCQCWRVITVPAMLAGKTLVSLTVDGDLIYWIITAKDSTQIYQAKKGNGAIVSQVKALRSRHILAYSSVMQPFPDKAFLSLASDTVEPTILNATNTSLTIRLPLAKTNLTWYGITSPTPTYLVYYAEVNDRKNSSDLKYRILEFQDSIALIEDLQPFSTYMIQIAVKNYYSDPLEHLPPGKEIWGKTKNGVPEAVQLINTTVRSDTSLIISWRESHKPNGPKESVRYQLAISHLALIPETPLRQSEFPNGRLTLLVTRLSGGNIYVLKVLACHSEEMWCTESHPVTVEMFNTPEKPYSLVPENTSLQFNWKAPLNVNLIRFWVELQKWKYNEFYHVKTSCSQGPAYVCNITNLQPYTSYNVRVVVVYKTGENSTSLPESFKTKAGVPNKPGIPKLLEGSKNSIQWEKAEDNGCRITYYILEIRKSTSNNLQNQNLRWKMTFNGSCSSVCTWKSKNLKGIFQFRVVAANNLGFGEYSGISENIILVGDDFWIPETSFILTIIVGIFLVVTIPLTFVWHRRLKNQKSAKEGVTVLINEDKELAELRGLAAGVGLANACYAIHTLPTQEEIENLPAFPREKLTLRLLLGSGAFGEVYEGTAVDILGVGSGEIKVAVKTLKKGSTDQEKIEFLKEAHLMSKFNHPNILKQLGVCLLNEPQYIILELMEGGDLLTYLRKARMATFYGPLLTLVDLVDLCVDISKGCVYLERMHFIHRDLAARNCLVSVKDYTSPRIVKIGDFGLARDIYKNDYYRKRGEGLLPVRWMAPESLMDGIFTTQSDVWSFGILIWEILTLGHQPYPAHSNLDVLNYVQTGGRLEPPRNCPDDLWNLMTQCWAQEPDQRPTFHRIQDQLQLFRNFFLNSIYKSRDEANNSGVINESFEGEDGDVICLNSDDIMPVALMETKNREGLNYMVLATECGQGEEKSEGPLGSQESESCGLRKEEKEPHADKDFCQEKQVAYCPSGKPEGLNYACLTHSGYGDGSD

The term Ki denotes the dissociation constant of the complex between target and ligand, obtained from inhibition or displacement. For orientation: pKi means the negative decadic logarithm of the Ki, by convention in mol/L. A low value points to a high Ki. With `NC(=O)c1cc(-c2ccnc(N)n2)[nH]c1-c1ccc(Cl)cc1Cl`, the Ki in experiment [1] is > 2.51 µM (inactive); in experiment [2] it was > 3.16 µM (inactive); in experiment [3] it was 0.00398 µM (active); in experiment [4], > 1.26 µM (inactive); in [5], > 2 µM (inactive); in [6] it was > 7.94 µM (inactive). Besides, the Ki was > 10 µM (inactive) in experiment [7]; > 1.58 µM (inactive) in experiment [8]; 0.251 µM (active) in experiment [9]; 1.26 µM (active) in experiment [10]; > 1.26 µM (inactive) in [11]; > 2 µM (inactive) in experiment [12]. The inhibitory constant (Ki) in experiment [13] is 0.126 µM (active); in [14], 3.16 µM (active); in experiment [15], 0.398 µM (active); in experiment [16], 0.000631 µM (active); in experiment [17], 0.631 µM (active); in [18] it was 0.398 µM (active). Moreover, the Ki was > 6.31 µM (inactive) in experiment [19], > 2.51 µM (inactive) in [20], > 7.94 µM (inactive) in experiment [21] and 1.58 µM (active) in experiment [22]. Also, the negative-log Ki (pKi) in [3] stood at 8.4; in experiment [9], 6.6; in experiment [10], 5.9; in experiment [13] it was 6.9; in experiment [15], 6.4; in experiment [16], 9.2. Further, the pKi stood at 6.2 in experiment [17], 6.4 in experiment [18] and 5.8 in [22].

Regarding `NC(COc1cncc(-c2ccc3c(c2)C(=Cc2ccco2)C(=O)N3)c1)Cc1c[nH]c2ccccc12` (configuration not stated), the Ki was > 3.16 µM (inactive) in experiment [1]; 0.0158 µM (active) in experiment [2]; 0.0501 µM (active) in experiment [4]; > 1 µM (inactive) in experiment [5]; 0.398 µM (active) in experiment [7]; 0.794 µM (active) in experiment [8]. Besides, the Ki in experiment [9] is 0.126 µM (active); in [10] it was 0.0501 µM (active); in [11], 0.501 µM (active); in experiment [12], 1 µM (active); in experiment [13], 0.0316 µM (active); in experiment [23] it was 0.00631 µM (active). Further, the inhibition constant Ki in experiment [14] is 0.501 µM (active); in experiment [15], 0.02 µM (active); in experiment [17], 0.251 µM (active); in experiment [18], 0.316 µM (active); in experiment [21], 2.51 µM (active); in experiment [24], 1.26 µM (active). Moreover, the Ki in [25] was 0.316 µM (active).

Consider `Cc1ccc(-n2nc(C(C)(C)C)cc2NC(=O)Nc2ccc(OCCN3CCOCC3)c3ccccc23)cc1` [DORAMAPIMOD], for which the Ki in experiment [6] and in experiment [23] was > 3.98 µM (inactive) throughout.
